Laboratory results: US11370779B2, “Pharmaceutical composition for preventing or treating acute myeloid leukemia or metastatic breast cancer” (PELEMED CO., LTD., priority 2017, dated 2022)
Structures can show the parent of a compound that is named as a salt. Where two headings read alike, the source gives them in different places.

Columns and labels:
MV4;11 cells = test: Cell viability, EZ-Cytox tetrazolium assay, MV4;11; format: cell-based, human; settings: 72 hours; for GI50: read-out: GI50(nM) MV4;11
Procedure: The cultured cells were incubated at 3° C. with 5% CO2.
(§1) Cell viability was assessed by a tetrazolium-based assay using the EZ-Cytox Cell Viability Assay kit (DaeilLab, Korea). Briefly, 2,000 to 15,000 cells were plated in 96-well plates in 100 μl of medium. The next day, the cells were treated with compounds together with dimethyl sulfoxide (DMSO) as a negative control. Three days (72 hours) after the drug addition, 15 μl of the EZ-Cytox kit reagent was added to each well of the 96-well plate and then incubated at 37° C. in a humidified CO2 incubator for 4 hours. After incubation, the optical density (OD) was measured at a wavelength of 450 nm using a Victor multilabel reader (Perkin Elmer, Waltham, Mass., USA).

FLT3 kinase = FLT3 kinase (Homo sapiens (Human), UniProt P36888); test: In vitro FLT3 kinase HTRF assay (Example 2); format: biochemical; settings: HTRF
Procedure: Inhibition of the FLT3 kinase activity was measured using homogeneous, time-resolved fluorescence (HTRF) assays. Recombinant proteins containing the FLT3 kinase domain were purchased from Carna biosciences (Japan). Optimal enzyme, ATP, and substrate concentrations were established using the HTRF KinEASE kit (Cisbio, France) according to the manufacturer's instructions. The FLT3 enzymes were mixed in sequence with diluted compounds and peptide substrates in a kinase reaction buffer (50 mM HEPES (pH 7.0), 500 μM ATP, 0.1 mM sodium orthovanadate, 5 mM MgCl2, 1 mM DTT, 0.01% bovine serum albumin (BSA), and 0.02% NaN3). After the addition of the reagents for detection, the TR-FRET signal was measured using a Victor multilabel reader (Perkin Elmer, Waltham, Mass., USA). […] JAK2, JAK3, cMET, and RET in vitro kinase assays were also performed using the HTRF assay.

MDA-MB-231 = test: Cell viability, EZ-Cytox tetrazolium assay, MDA-MB-231; format: cell-based, human; settings: 72 hours
Procedure: MDA-MB-231 (metastatic breast cancer, ATCC HTB-26), Jurkat (human acute T lymphocytic leukemia, ATCC TIB-152), and K-562 (human chronic myelogenous leukemia, ATCC CCL-243) cells were cultured in RPMI-1640 (Sigma Co.). MCF7 (human breast adenocarcinoma, ATCC HTB-22) and PC-3 (human prostate adenocarcinoma, ATCC CRL-1435) cells were cultured in DMEM (Sigma Co.) medium supplemented with 10% fetal bovine serum and 1% penicillin/streptomycin. The cultured cells were incubated at 3° C. with 5% CO2.
as §1, with “USA). The IC50 was calculated by nonlinear regression using Prism version 5.01 (GraphPad, La Jolla, Calif., USA).” for “USA).”

MDA-MB-231 xenograft = test: MDA-MB-231 mouse tumor xenograft; format: in vivo; settings: 20 mg/kg/p.o/day, 4 weeks
Procedure: 6-weeks-old Balb/c nu/nu mice (female) were purchased from Central Lab. Animal Inc. to be used. […] The candidate substances LDD-2614 (Compound 21), 2633 (Compound 28), 2634 (Compound 34), 2635 (Compound 33) were administered at 20 mg/kg/p.o/day, and doxorubicin, which was a control, was administered at 5 mg/kg/i.p (once a week) for 4 weeks.

MV4-11 xenograft = test: MV4-11 mouse tumor xenograft, oral administration
Procedure: The drug or the control PBS was administered daily for a duration of 21 days. Tumor sizes were measured twice a week for 21 days, and the tumor volumes were calculated with the following formula: V (volume)=X (length)×D (width)2/2. After 21 days, the mice were sacrificed, and the tumor weights were measured.
An in vivo MV4-11 xenograft study was performed to determine the efficacy of the indirubin derivatives. MV4-11 cells were subcutaneously injected into BALB/c nu/nu mice, and tumors were allowed to grow to a size of approximately 100 mm^3.

MOLM14 FLT3-ITD-D835Y = test: Cell proliferation MTT assay, MOLM14-ITD-D835Y; format: cell-based, human; settings: for GI50: Homo sapiens, MOLM-14
Procedure: (§2) MOLM14 were purchased from the ATCC and the cells were maintained in RPMI medium (Hyclone) with 10% Fetal bovine serum (Gibco) and 1% penicillin/streptomycin.
Mutagenesis is performed in FLT3-ITD MSCV plasmid using Q5 site-directed mutagenesis kit (E05545). […] Retroviral particles were produced by transiently transfecting HEK293T cells with Retroviral vectors together with packaging vectors, GPE and VSVG. 48 h after transfection, media containing viral particles were collected and filtered for infection. Viral particles were infected to MOLM14 cells and 48 h after infection, infected cells were selected with puromycin (1 μg/mL).

MOLM14 Wild type = test: Cell proliferation MTT assay, MOLM14 wild type; format: cell-based; settings: Homo sapiens, MOLM-14
Excerpt: as §2

[1] = Table 1, recombinant FLT3 kinase domain, 500 μM ATP

Sequence of FLT3 kinase (P36888 610-943): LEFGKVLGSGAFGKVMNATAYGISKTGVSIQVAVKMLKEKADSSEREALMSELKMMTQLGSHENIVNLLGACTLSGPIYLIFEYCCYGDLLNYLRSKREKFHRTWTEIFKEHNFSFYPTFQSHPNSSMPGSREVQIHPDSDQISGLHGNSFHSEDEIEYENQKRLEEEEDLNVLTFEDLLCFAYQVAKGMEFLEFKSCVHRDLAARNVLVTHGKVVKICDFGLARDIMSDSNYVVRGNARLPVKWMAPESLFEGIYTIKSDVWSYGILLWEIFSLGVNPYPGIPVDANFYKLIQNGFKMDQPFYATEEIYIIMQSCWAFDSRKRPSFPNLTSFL

O=C1Nc2ccc(C(=O)O)cc2/C1=C1/Nc2ccccc2/C1=N\O [Compound 7, (2Z,3E)-3-(hydroxyimino)-2′-oxo-[2,3′-biindolinylidene]-5′-carboxylic acid]
IC50 (MV4;11 cells; Homo sapiens, MV4-11, Table 1): 4020 nM | Ic50 (nM) MV4;11 (MV4;11 cells; Table 1): lacking anti-proliferative activity | IC50 (FLT3 kinase; [1]): 8 nM

O=C1Nc2ccc(C(=O)O)cc2/C1=C1/Nc2ccccc2/C1=N\OCCBr [Compound 8, (2Z,3E)-3-((2-bromoethoxy)imino)-2′-oxo-[2,3′-biindolinylidene]-5′-carboxylic acid]
IC50 (MV4;11 cells; Homo sapiens, MV4-11, Table 1): 340 nM | IC50 (FLT3 kinase; [1]): 13 nM

NCCO/N=C1/C(=C2/C(=O)Nc3ccc(C(=O)O)cc32)Nc2ccccc21 [Compound 9, (2Z,3E)-3-((2-aminoethoxy)imino)-2′-oxo-[2,3′-biindolinylidene]-5′-carboxylic acid hydrochloride]
IC50 (MV4;11 cells; Homo sapiens, MV4-11, Table 1): 150 nM | IC50 (FLT3 kinase; [1]): 3 nM

O=C1Nc2ccc([N+](=O)[O-])cc2/C1=C1/Nc2ccc(O)cc2/C1=N\O [Compound 13, (2Z,3E)-5-hydroxy-3-(hydroxyimino)-5′-nitro-[2,3′-biindolinylidene]-2′-one]
GI50 (MDA-MB-231; Homo sapiens, MDA-MB-231): 568 nM | GI50 (MV4;11 cells; Homo sapiens, MV4-11): 170 nM | IC50 (FLT3 kinase; Table 2): 23.4 nM

Cl.Cl.O=C1Nc2ccc(F)cc2/C1=C1/Nc2ccc(F)cc2/C1=N\OCCN1CCNCC1 [Compound 21, (2Z,3E)-5,5′-difluoro-3-((2-(piperazin-1-yl)ethoxy)imino)-[2,3′-biindolinylidene]-2′-one dihydrochloride]
GI50 (MDA-MB-231; Homo sapiens, MDA-MB-231): 121 nM | weights of the liver and the kidney (MDA-MB-231 xenograft): no significant difference | GI50 (MV4;11 cells; Homo sapiens, MV4-11): 8.9 nM

O=C1Nc2ccc(F)cc2/C1=C1/Nc2ccc(F)cc2/C1=N\OCCN1CCOCC1 [Compound 27, (2Z,3E)-5,5′-difluoro-3-((2-morpholinoethoxy)imino)-[2,3′-biindolinylidene]-2′-one hydrochloride]
GI50 (MDA-MB-231; Homo sapiens, MDA-MB-231): > 10 nM | GI50 (MV4;11 cells; Homo sapiens, MV4-11): 116 nM | IC50 (FLT3 kinase; Table 2): 939 nM

Cl.Cl.O=C1Nc2ccccc2/C1=C1/Nc2ccccc2/C1=N\OCCN1CCNCC1 [Compound 28, (2Z,3E)-3-((2-(piperazin-1-yl)ethoxy)imino)-[2,3′-biindolinylidene]-2′-one dihydrochloride]
GI50 (MDA-MB-231; Homo sapiens, MDA-MB-231): 276 nM | weights of the liver and the kidney (MDA-MB-231 xenograft): no significant difference | GI50 (MV4;11 cells; Homo sapiens, MV4-11): 0.51 nM | weight loss or other signs of toxicity during the administration period (MV4-11 xenograft; 20 mg/kg oral once daily for 21 days): no weight loss or any other signs of toxicity | day by which the tumor disappeared (MV4-11 xenograft; 20 mg/kg oral once daily, based on measured tumor volume): ≤ 14 days

CN1CCN(CCO/N=C2/C(=C3/C(=O)Nc4ccc(F)cc43)Nc3ccccc32)CC1.Cl.Cl [Compound 34, (2Z,3E)-5′-fluoro-3-((2-(4-methylpiperazin-1-yl)ethoxy)imino)-[2,3′-biindolinylidene]-2′-one dihydrochloride]
GI50 (MDA-MB-231; Homo sapiens, MDA-MB-231): 127 nM | weights of the liver and the kidney (MDA-MB-231 xenograft): no significant difference | GI50 (MV4;11 cells; Homo sapiens, MV4-11): 11.1 nM

CN1CCN(CCO/N=C2/C(=C3/C(=O)Nc4ccc(Br)cc43)Nc3ccccc32)CC1 [Compound 41, (2Z,3E)-5′-bromo-3-((2-(4-methylpiperazin-1-yl)ethoximino)-[2,3′-biindolinylidene]-2′-one dihydrochloride]
GI50 (MV4;11 cells): 25 nM | IC50 (FLT3 kinase; Table 2): 4.8 nM

CC1(COc2ccc3c(c2)ncn3-c2ccc3cccc(N4CCC(N)CC4)c3n2)COC1 [Crenolanib]
GI50 (MOLM14 FLT3-ITD-D835Y): 15 nM | GI50 (MOLM14 Wild type): 4.7 nM

CCc1nc(C(N)=O)c(Nc2ccc(N3CCC(N4CCN(C)CC4)CC3)c(OC)c2)nc1NC1CCOCC1 [Gilteritinib]
GI50 (MOLM14 FLT3-ITD-D835Y): 43 nM | GI50 (MOLM14 Wild type): 8.5 nM

CO[C@@H]1[C@H](N(C)C(=O)c2ccccc2)C[C@H]2O[C@]1(C)n1c3ccccc3c3c4c(c5c6ccccc6n2c5c31)C(=O)NC4 [Midostaurin]
GI50 (MOLM14 FLT3-ITD-D835Y): 79 nM | GI50 (MOLM14 Wild type): 80 nM

CNC(=O)c1cc(Oc2ccc(NC(=O)Nc3ccc(Cl)c(C(F)(F)F)c3)cc2)ccn1 [Sorafenib]
GI50 (nM) MOLM14-ITD D835Y (MOLM14 FLT3-ITD-D835Y): No Activity | GI50 (MOLM14 Wild type): 28 nM

(2Z,3E)-2′-oxo-3-((2-(piperazin-1-yl)ethoximino)-[2,3′-biindolinylidene]-5′-carboxylic acid dihydrochloride [Compound 10]
IC50 (MV4;11 cells; Table 1): 40 nM | IC50 (FLT3 kinase; [1]): 3 nM

(2Z,3E)-3-((2-(4-methylpiperazin-1-yl)ethoxy)imino)-5′-(trifluoromethox[2,3′-biindolinylidene]-2′-one dihydrochloride [Compound 45]
GI50 (MV4;11 cells): 22 nM | IC50 (FLT3 kinase; Table 2): 5.6 nM

(2Z,3E)-5′-fluoro-3-((2-(pyrrolidin-1-yl)ethoximino)-[2,3′-biindolinylidene]-2′-one hydrochloride [Compound 36]
GI50 (MDA-MB-231): 805 nM | GI50 (MV4;11 cells): 212 nM | IC50 (FLT3 kinase; Table 2): 267 nM

(2Z,3E)-34(2-(piperazin-1-yl)ethoxy)imino)-5′-(trifluoromethoxy)-[2,3′-biindolinylidene]-2′-one dihydrochloride [Compound 44]
GI50 (MV4;11 cells): 20 nM | IC50 (FLT3 kinase; Table 2): 40.2 nM
